± gives the expanded uncertainty stated by the source.
Details: 101.33 kPa, Liquid; for viscosity: Capillary tube (Ostwald / Ubbelohde) method; for mass density: Pycnometric method

viscosity (298.15 K) | mass density (298.15 K) | viscosity (323.15 K) | mass density (323.15 K) | viscosity (348.15 K) | mass density (348.15 K) | viscosity (373.15 K) | mass density (373.15 K) | Structure (SMILES)
279.4 ± 29 mPa·s | 1233 ± 2 kg/m3 | 79.8 ± 8.1 mPa·s | 1215 ± 2 kg/m3 | 32.5 ± 3.3 mPa·s | 1196 ± 2 kg/m3 | 15.3 ± 1.5 mPa·s | 1176 ± 2 kg/m3 | CCCCCCCCn1cc[n+](C)c1.O=S(=O)([O-])C(F)(F)C(F)F
30.1 ± 3.2 mPa·s | 1065 ± 3 kg/m3 | 13.5 ± 1.6 mPa·s | 1050 ± 3 kg/m3 | 7.7 ± 1.1 mPa·s | 1036 ± 3 kg/m3 | 4.9 ± 0.9 mPa·s | 1026 ± 3 kg/m3 | CCCCn1cc[n+](C)c1.N#CN=C=[N-] [1-butyl-3-methylimidazolium dicyanamide]
205.5 ± 21 mPa·s | 1185 ± 2 kg/m3 | 52.7 ± 5.3 mPa·s | 1171 ± 2 kg/m3 | 21.3 ± 2.1 mPa·s | 1154 ± 2 kg/m3 | 10.5 ± 1.1 mPa·s | 1144 ± 2 kg/m3 | CCCC[n+]1ccc(C)cc1.F[B-](F)(F)F [1-butyl-4-methylpyridinium tetrafluoroborate]

From the NIST ThermoML archive (doi:10.1016/j.fluid.2011.11.030)
